For this test, the target named is T1, human GPR119 (Homo sapiens, UniProt Q8TDV5).
T1 construct: expression vector for human GPR119 cDNA (Acc. No. NP_848566); expressed in transfected cells
T1 sequence (Q8TDV5 1-335): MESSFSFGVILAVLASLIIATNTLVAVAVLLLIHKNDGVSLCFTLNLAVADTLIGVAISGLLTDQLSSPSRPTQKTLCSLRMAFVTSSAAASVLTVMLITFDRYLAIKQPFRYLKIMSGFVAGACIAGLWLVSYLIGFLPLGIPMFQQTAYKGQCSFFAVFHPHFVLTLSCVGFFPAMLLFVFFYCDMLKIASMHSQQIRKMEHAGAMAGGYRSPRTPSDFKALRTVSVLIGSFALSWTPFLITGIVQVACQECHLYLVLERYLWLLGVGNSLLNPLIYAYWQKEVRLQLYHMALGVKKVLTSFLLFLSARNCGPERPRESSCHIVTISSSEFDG
Description: AlphaScreen cAMP assay in Min-6/hGPR119 cells (activation of GPR119, intracellular cAMP). It counts as cell-based. To be noted: MIN6 cells stably transfected with human GPR119; cAMP by AlphaScreen after 45 minutes incubation at room temperature. The method, then: The compounds of formula I according to the invention modulate the activity of the G-protein-coupled receptor GPR119. The effect of the compounds on the activation of GPR119 and on the stimulation of intracellular cAMP concentration is determined using the AlphaScreen cAMP Assay Kit (Cat.No.#6760625R) made by PerkinElmer.
MIN6 cells [Miyazaki J et al. Endocrinology. 1990 July; 127(1):126-32] are stably transfected with an expression vector for human GPR119 cDNA (Acc. No. NP_848566). Min-6/hGPR119 cells are cultured in DMEM, 10% FBS, 50 μM β-mercaptoethanol, 0.3 mg/mL Geniticin, 2 mM GlutaMAX at 37° C. 5% CO2. For the assay, the cells are seeded in Optiplates (white, 384-well, 160W— barcoded, TC, sterile with lid, Cat.No.#6007688 (Perkin Elmer); 10000 cells/well; 50 μl). The plates covered with lids are then incubated for 24 hours at 37° C./5% CO2. After the medium is aspirated from the wells completely, 10 μl of the test compound are added, the compounds are diluted using stimulating buffer (140 mM NaCl, 3.6 mM KCl, 0.5 mM NaH2PO4, 0.5 mM MgSO4, 1.5 mM CaCl2, 10 mM Hepes, 5 mM NaHCO3; pH 7.4. 0.5 mM IBMX and 0.1% BSA, the final DMSO concentration is 1%). After 45 minutes incubation at room temperature (approx. 20° C.), the cAMP concentrations are determined using the AlphaScreen cAMP Assay Kit (Cat.No.#6760625R from PerkinElmer).
`CC(C)(C)OC(=O)N1CCC(C2Cc3cc(-c4ccnc(C(F)(F)F)c4)ncc3O2)CC1` (stereo not shown) [Example 56, 4-[5-(2-Trifluoromethyl-pyridin-4-yl)-2,3-dihydro-furo[2,3-c]pyridin-2-yl]-piperidine-1-carboxylic acid tert-butyl ester]: the EC50 came out at 222 nM. Compound `Cn1ccc(-c2cc3c(cn2)OC(C2CCN(C(=O)OC(C)(C)C)CC2)C3)cc1=O` (stereo not shown) [Example 57, 4-[5-(1-Methyl-2-oxo-1,2-dihydro-pyridin-4-yl)-2,3-dihydro-furo[2,3-c]pyridin-2-yl]-piperidine-1-carboxylic acid tert-butyl ester] gave an EC50 of 685 nM. Then `Cn1cc(-c2cc3c(cn2)OC(C2CCN(C(=O)OC(C)(C)C)CC2)C3)ccc1=O` (stereo not shown) [Example 58, 4-[5-(1-Methyl-6-oxo-1,6-dihydro-pyridin-3-yl)-2,3-dihydro-furo[2,3-c]pyridin-2-yl]-piperidine-1-carboxylic acid tert-butyl ester], with 133 nM; and `CC(C)(C)OC(=O)N1CCC(C2Cc3cc(-c4ccncc4C#N)ncc3O2)CC1` (stereo not shown) [Example 59, 4-[5-(3-Cyano-pyridin-4-yl)-2,3-dihydro-furo[2,3-c]pyridin-2-yl]-piperidine-1-carboxylic acid tert-butyl ester], with 119 nM. The compound `CC(C)(C)OC(=O)N1CCC(C2Cc3cc(-n4ccncc4=O)ncc3O2)CC1` (stereo not shown) [Example 60, 4-[5-(2-Oxo-2H-pyrazin-1-yl)-2,3-dihydro-furo[2,3-c]pyridin-2-yl]-piperidine-1-carboxylic acid tert-butyl ester] gave a concentration for a half-maximal effect (EC50) of 522 nM. Then `CS(=O)(=O)Cc1ccc(-c2cc3c(cn2)OC(C2CCN(C(=O)OC4CCC4)CC2)C3)cc1` (stereo not shown) [Example 61, 4-[5-(4-Methanesulfonylmethyl-phenyl)-2,3-dihydro-furo[2,3-c]pyridin-2-yl]-piperidine-1-carboxylic acid cyclobutyl ester], with 31 nM. Then `CC(C)OC(=O)N1CCC(C2Cc3cc(-c4ccc(CS(C)(=O)=O)cc4)ncc3O2)CC1` (stereo not shown) [Example 62, 4-[5-(4-Methanesulfonylmethyl-phenyl)-2,3-dihydro-furo[2,3-c]pyridin-2-yl]-piperidine-1-carboxylic acid isopropyl ester], with 36 nM.

`CC(C)OC(=O)N1CCC(C2Cc3cc(-c4ccc(S(C)(=O)=O)cc4)ncc3O2)CC1` (stereo not shown) [Example 63, 4-[5-(4-Methanesulfonyl-phenyl)-2,3-dihydro-furo[2,3-c]pyridin-2-yl]-piperidine-1-carboxylic acid isopropyl ester] came in with an EC50 of 18 nM. Then `CC1(OC(=O)N2CCC(C3Cc4cc(-c5ccc(CS(C)(=O)=O)cc5)ncc4O3)CC2)CC1` (stereo not shown) [Example 64, 4-[5-(4-Methanesulfonylmethyl-phenyl)-2,3-dihydro-furo[2,3-c]pyridin-2-yl]-piperidine-1-carboxylic acid 1-methyl-cyclopropyl ester], with 51 nM; and `CC(C)S(=O)(=O)c1ccc(-c2cc3c(cn2)OC(C2CCN(C(=O)OC(C)(C)C)CC2)C3)cc1` (stereo not shown) [Example 65, 4-{5-[4-(Propane-2-sulfonyl)-phenyl]-2,3-dihydro-furo[2,3c]pyridin-2-yl}-piperidine-1-carboxylic acid tert-butyl ester], with 26 nM; and `CCS(=O)(=O)c1ccc(-c2cc3c(cn2)OC(C2CCN(C(=O)OC(C)(C)C)CC2)C3)cc1` (stereo not shown) [Example 66, 4-[5-(4-Ethanesulfonyl-phenyl)-2,3-dihydro-furo[2,3-c]pyridin-2-yl]-piperidine-1-carboxylic acid tert-butyl ester], with 12 nM. On to `CC(=O)Nc1ccc(-c2cc3c(cn2)OC(C2CCN(C(=O)OC(C)(C)C)CC2)C3)cc1` (stereo not shown) [Example 67, 4-[5-(4-Acetylamino-phenyl)-2,3-dihydro-furo[2,3-c]pyridin-2-yl]-piperidine-1-carboxylic acid tert-butyl ester], for which a half-maximal effect (EC50) was put at 13 nM. Compound `Cn1cc(-c2cc3c(cn2)OC(C2CCN(C(=O)OC(C)(C)C)CC2)C3)cn1` (stereo not shown) [Example 68, 4-[5-(1-Methyl-1H-pyrazol-4-yl)-2,3-dihydro-furo[2,3-c]pyridin-2-yl]-piperidine-1-carboxylic acid tert-butyl ester] registered an EC50 of 575 nM. Then `CC(C)(C)OC(=O)N1CCC(C2Cc3cc(-n4ccnc4)ncc3O2)CC1` (stereo not shown) [Example 69, 4-(5-Imidazol-1-yl-2,3-dihydro-furo[2,3-c]pyridin-2-yl)-piperidine-1-carboxylic acid tert-butyl ester], with 162 nM. Take `Cc1nccn1-c1cc2c(cn1)OC(C1CCN(C(=O)OC(C)(C)C)CC1)C2` (stereo not shown) [Example 70, 4-[5-(2-Methyl-imidazol-1-yl)-2,3-dihydro-furo[2,3-c]pyridin-2-yl]-piperidine-1-carboxylic acid tert-butyl ester]: the EC50 is 706 nM. In the case of `CC(C)(C)OC(=O)N1CCC([C@@H]2Cc3cc(-c4ccc(S(C)(=O)=O)cn4)ccc3O2)CC1` [Example 71, (S)-4-[5-(5-Methanesulfonyl-pyridin-2-yl)-2,3-dihydro-benzofuran-2-yl]-piperidine-1-carboxylic acid tert-butyl ester] it was 11 nM. Consider `CC(C)(C)OC(=O)N1CCC([C@H]2Cc3cc(-c4ccc(S(C)(=O)=O)cn4)ccc3O2)CC1` [Example 72, (R)-4-[5-(5-Methanesulfonyl-pyridin-2-yl)-2,3-dihydro-benzofuran-2-yl]-piperidine-1-carboxylic acid tert-butyl ester], for which a half-maximal effect (EC50) was put at 97 nM.

With `CC(C)(C)OC(=O)N1CCC([C@@H]2Cc3nc(-c4ccc(S(C)(=O)=O)cc4)ncc3O2)CC1` [Example 73, (S)-4-[2-(4-Methanesulfonyl-phenyl)-6,7-dihydro-furo[3,2-d]pyrimidin-6-yl]-piperidine-1-carboxylic acid tert-butyl ester], the concentration giving a half-maximal response (EC50) was 27 nM. Against the preceding compound, the EC50 is about 3.6-fold lower. Then `CC(C)(C)OC(=O)N1CCC([C@H]2Cc3nc(-c4ccc(S(C)(=O)=O)cc4)ncc3O2)CC1` [Example 74, (R)-4-[2-(4-Methanesulfonyl-phenyl)-6,7-dihydro-furo[3,2-d]pyrimidin-6-yl]-piperidine-1-carboxylic acid tert-butyl ester], with 218 nM; and `CC(C)(C)OC(=O)N1CCC(C2(C)Cc3cc(-c4ccc(S(C)(=O)=O)cc4)ncc3O2)CC1` (stereo not shown) [Example 77, 4-[5-(4-Methanesulfonyl-phenyl)-2-methyl-2,3-dihydro-furo[2,3-c]pyridin-2-yl]-piperidine-1-carboxylic acid tert-butyl ester], with 14 nM; and `CC(C)(C)OC(=O)N1CCC(C2(C)Cc3cc(C4=CCN(S(C)(=O)=O)CC4)ncc3O2)CC1` (stereo not shown) [Example 78, 4-[5-(1-Methanesulfonyl-1,2,3,6-tetrahydro-pyridin-4-yl)-2-methyl-2,3-dihydro-furo[2,3-c]pyridin-2-yl]-piperidine-1-carboxylic acid tert-butyl ester], with 15 nM. Turning to `CC(C)(C)OC(=O)N1CCC(C2(C)Cc3cc(N4CCN(S(C)(=O)=O)CC4)ncc3O2)CC1` (stereo not shown) [Example 79, 4-[5-(4-Methanesulfonyl-piperazin-1-yl)-2-methyl-2,3-dihydro-furo[2,3-c]pyridin-2-yl]-piperidine-1-carboxylic acid tert-butyl ester], a half-maximal effect (EC50) was put at 40 nM.

For the origin of these results see patent publication US8669271B2 (Boehringer Ingelheim International GmbH, priority 2010, dated 2014).
